As a reminder, the inhibition is the drop in the measured response relative to a control, in per cent.

Holding throughout (format): in vivo
The test system of one assay is Monochoria vaginalis. Briefly: Test for Herbicidal Effect in Flooding Treatment (#1), MONVA. Particulars: flooding treatment at seeding, dose 2 kg/ha, visual observation on day 21. In outline:
(§1)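 Visual scores from 0 (<10% inhibition) to 5 (≥90% or complete withering) were taken 21 days after treatment of glasshouse-grown plants. Seeds were sown in soil flooded for 24 h beforehand, and compound was applied dropwise onto the surface at 2 kg/ha as an acetone solution diluted in water with Tween 80.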

The subject of assay [1] is Echinochloa crus-galli (L.) P. Beauv. var. formosensis Ohwi. Put plainly: Test for Herbicidal Effect in Flooding Treatment (#2), ECHDG at 2-2.5 leaf stage. To be noted: for ECHDG (2-2.5L) #2 herbicidal effect (growth inhibition grade): flooding treatment at 2-2.5 leaf stage, dose 0.2 kg/ha, visual observation on day 21. In outline: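 Flooded muddy soil was seeded with the weed, and at 2–2.5 leaf stage compound in acetone/Tween 80 water was dropped on the water surface at 0.2 kg/ha. Plants were kept in a glasshouse and scored visually on day 21 from 0 (<10% growth inhibition) to 5 (≥90% or complete withering).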

Assay [2] shares this test system. Briefly: Test for Herbicidal Effect in Flooding Treatment (#1), ECHDG. To be noted: flooding treatment at seeding, dose 2 kg/ha, visual observation on day 21. The essentials:
as §1

Another assay has as its system Scirpus juncoides. Briefly: Test for Herbicidal Effect in Flooding Treatment (#1), SCIJU. Particulars: flooding treatment at seeding, dose 2 kg/ha, visual observation on day 21. The essentials: as §1

With `CCOc1ccc(Cl)c(Cl)c1CS(=O)(=O)c1ncc(Cl)s1` [Compound 1C-33, 5-chloro-2-[(2-ethoxy-5,6-dichlorophenyl)(methanesulfonyl)]-1,3-thiazole], the “MONVA #1 herbicidal effect (growth inhibition grade)” value in the assay on Monochoria vaginalis is reported as 5 (Growth inhibition effect is equal to or greater than 90%, or complete withering is achieved). Moreover, in assay [1] (Echinochloa crus-galli, 504 h, flooding treatment (#2), ECHDG at 2-2.5 leaf stage, dose of 0.2 kg/ha, day 21, visual observation, read-out: growth inhibition effect), the inhibition at 200 g/ha was not below 90%. In addition, the “ECHDG (2-2.5L) #2 herbicidal effect (growth inhibition grade)” value in assay [1] is reported as 5 (Growth inhibition effect is equal to or greater than 90%, or complete withering is achieved). In addition, the “ECHDG #1 herbicidal effect (growth inhibition grade)” value in assay [2] is listed as 5 (Growth inhibition effect is equal to or greater than 90%, or complete withering is achieved). Also, the “SCIJU #1 herbicidal effect (growth inhibition grade)” value with Scirpus juncoides is given as 5 (Growth inhibition effect is equal to or greater than 90%, or complete withering is achieved).

Take `O=S(=O)(Cc1c(Cl)cccc1OC(F)F)c1ncc(Cl)s1` [Compound 1C-42]: the “MONVA #1 herbicidal effect (growth inhibition grade)” value with Monochoria vaginalis is on record as 5 (Growth inhibition effect is equal to or greater than 90%, or complete withering is achieved). In assay [1], the “ECHDG (2-2.5L) #2 herbicidal effect (growth inhibition grade)” value is 5 (Growth inhibition effect is equal to or greater than 90%, or complete withering is achieved). In addition, in assay [2], the “ECHDG #1 herbicidal effect (growth inhibition grade)” value was 5 (Growth inhibition effect is equal to or greater than 90%, or complete withering is achieved). For the same molecule, in the assay with Scirpus juncoides, the “SCIJU #1 herbicidal effect (growth inhibition grade)” value is 5 (Growth inhibition effect is equal to or greater than 90%, or complete withering is achieved).

On to `O=S(=O)(Cc1c(F)cccc1OC(F)F)c1ncc(Cl)s1` [Compound 1C-43], for which the “MONVA #1 herbicidal effect (growth inhibition grade)” value with Monochoria vaginalis is given as 5 (Growth inhibition effect is equal to or greater than 90%, or complete withering is achieved). In assay [1], the “ECHDG (2-2.5L) #2 herbicidal effect (growth inhibition grade)” value is reported as 5 (Growth inhibition effect is equal to or greater than 90%, or complete withering is achieved). Further, in assay [2], the “ECHDG #1 herbicidal effect (growth inhibition grade)” value was 5 (Growth inhibition effect is equal to or greater than 90%, or complete withering is achieved). Also, in the assay on Scirpus juncoides, the “SCIJU #1 herbicidal effect (growth inhibition grade)” value is on record as 5 (Growth inhibition effect is equal to or greater than 90%, or complete withering is achieved).

For `O=S(=O)(Cc1c(F)cc(F)cc1OC(F)F)c1ncc(Cl)s1` [Compound 1C-44], in the assay with Monochoria vaginalis, the “MONVA #1 herbicidal effect (growth inhibition grade)” value is reported as 5 (Growth inhibition effect is equal to or greater than 90%, or complete withering is achieved). The “ECHDG (2-2.5L) #2 herbicidal effect (growth inhibition grade)” value in assay [1] is recorded as 5 (Growth inhibition effect is equal to or greater than 90%, or complete withering is achieved). For the same molecule, the “ECHDG #1 herbicidal effect (growth inhibition grade)” value in assay [2] is reported as 5 (Growth inhibition effect is equal to or greater than 90%, or complete withering is achieved). For the same molecule, the “SCIJU #1 herbicidal effect (growth inhibition grade)” value in the assay on Scirpus juncoides is recorded as 5 (Growth inhibition effect is equal to or greater than 90%, or complete withering is achieved).

As to `O=S(=O)(Cc1c(OC(F)F)ccc(Cl)c1F)c1ncc(Cl)s1` [Compound 1C-45], in the assay with Monochoria vaginalis, the “MONVA #1 herbicidal effect (growth inhibition grade)” value was 5 (Growth inhibition effect is equal to or greater than 90%, or complete withering is achieved). For the same molecule, the “ECHDG (2-2.5L) #2 herbicidal effect (growth inhibition grade)” value in assay [1] is 5 (Growth inhibition effect is equal to or greater than 90%, or complete withering is achieved). In addition, in assay [2], the “ECHDG #1 herbicidal effect (growth inhibition grade)” value was 5 (Growth inhibition effect is equal to or greater than 90%, or complete withering is achieved). Moreover, in the assay with Scirpus juncoides, the “SCIJU #1 herbicidal effect (growth inhibition grade)” value is on record as 5 (Growth inhibition effect is equal to or greater than 90%, or complete withering is achieved).

For `O=S(=O)(Cc1c(Cl)cccc1OC(F)(F)F)c1ncc(Cl)s1` [Compound 1C-49], the “MONVA #1 herbicidal effect (growth inhibition grade)” value in the assay with Monochoria vaginalis is reported as 5 (Growth inhibition effect is equal to or greater than 90%, or complete withering is achieved). Besides, the “ECHDG (2-2.5L) #2 herbicidal effect (growth inhibition grade)” value in assay [1] is given as 5 (Growth inhibition effect is equal to or greater than 90%, or complete withering is achieved). Moreover, the “ECHDG #1 herbicidal effect (growth inhibition grade)” value in assay [2] is 5 (Growth inhibition effect is equal to or greater than 90%, or complete withering is achieved). Besides, the “SCIJU #1 herbicidal effect (growth inhibition grade)” value in the assay with Scirpus juncoides is 5 (Growth inhibition effect is equal to or greater than 90%, or complete withering is achieved).

`O=S(=O)(Cc1c(F)cccc1OCC(F)F)c1ncc(Cl)s1` [Compound 1C-50]: the “MONVA #1 herbicidal effect (growth inhibition grade)” value in the assay with Monochoria vaginalis was 5 (Growth inhibition effect is equal to or greater than 90%, or complete withering is achieved). The “ECHDG (2-2.5L) #2 herbicidal effect (growth inhibition grade)” value in assay [1] is 5 (Growth inhibition effect is equal to or greater than 90%, or complete withering is achieved). Further, the “ECHDG #1 herbicidal effect (growth inhibition grade)” value in assay [2] is 5 (Growth inhibition effect is equal to or greater than 90%, or complete withering is achieved). For the same molecule, in the assay on Scirpus juncoides, the “SCIJU #1 herbicidal effect (growth inhibition grade)” value is 5 (Growth inhibition effect is equal to or greater than 90%, or complete withering is achieved).

For `O=S(=O)(Cc1c(Cl)cccc1OCC(F)F)c1ncc(Cl)s1` [Compound 1C-51], in the assay on Monochoria vaginalis, the “MONVA #1 herbicidal effect (growth inhibition grade)” value is 5 (Growth inhibition effect is equal to or greater than 90%, or complete withering is achieved). Further, the “ECHDG (2-2.5L) #2 herbicidal effect (growth inhibition grade)” value in assay [1] is reported as 5 (Growth inhibition effect is equal to or greater than 90%, or complete withering is achieved). In addition, the “ECHDG #1 herbicidal effect (growth inhibition grade)” value in assay [2] is 5 (Growth inhibition effect is equal to or greater than 90%, or complete withering is achieved). The “SCIJU #1 herbicidal effect (growth inhibition grade)” value with Scirpus juncoides is on record as 5 (Growth inhibition effect is equal to or greater than 90%, or complete withering is achieved).

`O=S(=O)(Cc1c(OCC(F)F)cccc1C(F)(F)F)c1ncc(Cl)s1` [Compound 1C-52]: the “MONVA #1 herbicidal effect (growth inhibition grade)” value in the assay with Monochoria vaginalis is reported as 5 (Growth inhibition effect is equal to or greater than 90%, or complete withering is achieved). Moreover, the “ECHDG (2-2.5L) #2 herbicidal effect (growth inhibition grade)” value in assay [1] is recorded as 5 (Growth inhibition effect is equal to or greater than 90%, or complete withering is achieved). For the same molecule, the “ECHDG #1 herbicidal effect (growth inhibition grade)” value in assay [2] was 5 (Growth inhibition effect is equal to or greater than 90%, or complete withering is achieved). In addition, the “SCIJU #1 herbicidal effect (growth inhibition grade)” value with Scirpus juncoides is on record as 5 (Growth inhibition effect is equal to or greater than 90%, or complete withering is achieved).

For the molecule `O=S(=O)(Cc1ccccc1OCC(F)(F)F)c1ncc(Cl)s1` [Compound 1C-53], the “MONVA #1 herbicidal effect (growth inhibition grade)” value with Monochoria vaginalis is 5 (Growth inhibition effect is equal to or greater than 90%, or complete withering is achieved). In assay [1], the “ECHDG (2-2.5L) #2 herbicidal effect (growth inhibition grade)” value is given as 5 (Growth inhibition effect is equal to or greater than 90%, or complete withering is achieved). In assay [2], the “ECHDG #1 herbicidal effect (growth inhibition grade)” value was 5 (Growth inhibition effect is equal to or greater than 90%, or complete withering is achieved). Besides, the “SCIJU #1 herbicidal effect (growth inhibition grade)” value in the assay on Scirpus juncoides is 5 (Growth inhibition effect is equal to or greater than 90%, or complete withering is achieved).

Take `O=S(=O)(Cc1c(F)cccc1OCC(F)(F)F)c1ncc(Cl)s1` [Compound 1C-54]: the “MONVA #1 herbicidal effect (growth inhibition grade)” value with Monochoria vaginalis is 5 (Growth inhibition effect is equal to or greater than 90%, or complete withering is achieved). Further, in assay [1], the “ECHDG (2-2.5L) #2 herbicidal effect (growth inhibition grade)” value is given as 5 (Growth inhibition effect is equal to or greater than 90%, or complete withering is achieved). The “ECHDG #1 herbicidal effect (growth inhibition grade)” value in assay [2] was 5 (Growth inhibition effect is equal to or greater than 90%, or complete withering is achieved). Further, the “SCIJU #1 herbicidal effect (growth inhibition grade)” value with Scirpus juncoides was 5 (Growth inhibition effect is equal to or greater than 90%, or complete withering is achieved).

`O=S(=O)(Cc1c(Cl)cccc1OCC(F)(F)F)c1ncc(Cl)s1` [Compound 1C-55]: the “MONVA #1 herbicidal effect (growth inhibition grade)” value in the assay with Monochoria vaginalis is listed as 5 (Growth inhibition effect is equal to or greater than 90%, or complete withering is achieved). For the same molecule, the “ECHDG (2-2.5L) #2 herbicidal effect (growth inhibition grade)” value in assay [1] is 5 (Growth inhibition effect is equal to or greater than 90%, or complete withering is achieved). Besides, the “ECHDG #1 herbicidal effect (growth inhibition grade)” value in assay [2] is reported as 5 (Growth inhibition effect is equal to or greater than 90%, or complete withering is achieved). Also, the “SCIJU #1 herbicidal effect (growth inhibition grade)” value in the assay with Scirpus juncoides is 5 (Growth inhibition effect is equal to or greater than 90%, or complete withering is achieved).

For the molecule `O=S(=O)(Cc1c(F)cccc1OCCC(F)(F)F)c1ncc(Cl)s1` [Compound 1C-58], the “MONVA #1 herbicidal effect (growth inhibition grade)” value in the assay with Monochoria vaginalis is given as 5 (Growth inhibition effect is equal to or greater than 90%, or complete withering is achieved). The “ECHDG (2-2.5L) #2 herbicidal effect (growth inhibition grade)” value in assay [1] is given as 5 (Growth inhibition effect is equal to or greater than 90%, or complete withering is achieved). For the same molecule, the “ECHDG #1 herbicidal effect (growth inhibition grade)” value in assay [2] is recorded as 5 (Growth inhibition effect is equal to or greater than 90%, or complete withering is achieved). In addition, the “SCIJU #1 herbicidal effect (growth inhibition grade)” value in the assay with Scirpus juncoides is recorded as 5 (Growth inhibition effect is equal to or greater than 90%, or complete withering is achieved).

For `O=S(=O)(Cc1c(Cl)cccc1OCCC(F)(F)F)c1ncc(Cl)s1` [Compound 1C-59], the “MONVA #1 herbicidal effect (growth inhibition grade)” value in the assay on Monochoria vaginalis was 5 (Growth inhibition effect is equal to or greater than 90%, or complete withering is achieved). Besides, the “ECHDG (2-2.5L) #2 herbicidal effect (growth inhibition grade)” value in assay [1] was 4 (Growth inhibition effect is equal to or greater than 70%, and less than 90%). The “ECHDG #1 herbicidal effect (growth inhibition grade)” value in assay [2] was 5 (Growth inhibition effect is equal to or greater than 90%, or complete withering is achieved). Also, the “SCIJU #1 herbicidal effect (growth inhibition grade)” value with Scirpus juncoides is 5 (Growth inhibition effect is equal to or greater than 90%, or complete withering is achieved).
